A short description of the experiment: Angiotensin II antagonism at the rat adrenal gland, IC50 (method of A.T. Chiu et al., J. Pharmacol. Exp. Therap. 250, 867-874 (1989)). Particulars: an der Rattennebenniere; Iy and Iz tested as K-Salze; read-out: IC 50-Werte. The format is binding, Ratten. The source says: Diese Wirkungen können nach üblichen in vitro- oder in vivo-Methoden ermittelt werden, wie sie z.B. in der US-PS 4 880 804, der US-PS 5 036 048 und der WO 91/14367 beschrieben sind, ferner von A.T. Chiu et al., J. Pharmacol. Exp. Therap. 250, 867-874 (1989), und von P.C. Wong et al., ibid. 252, 719-725 (1990; in vivo, an Ratten).
So zeigten die K-Salze von 1,2-Dihydro-1-(2'-(1H-5-tetrazolyl)-biphenylyl-4-methyl)-2-oxo-3-N-methyl- bzw. -3-N-isopropyl-N-methylsulfonylaminomethyl-6-butyl-pyridin ("Iy" bzw. "Iz") an der Rattennebenniere (Versuchsmethodik vgl. A.T.Chiu et al., l.c.) IC 50-Werte von 1,15 bzw. 1,9 nM.l-¹, wahrend das bekannte 1,2-Dihydro-1-(2'-(1H-5-tetrazolyl)biphenylyl-4-methyl)-2-oxo-3-methylsulfonylaminomethyl-6-butyl-pyridin (vgl. EP 0 530 702 A1, Beispiel 22) im gleichen Test einen IC 50-Wert von 4,0 nM · l⁻¹ aufwies.
Consider `CCCCc1ccc(CNS(C)(=O)=O)c(=O)n1Cc1ccc(-c2ccccc2-c2nn[nH]n2)cc1` [EP 0 530 702 A1, Beispiel 22, 1,2-Dihydro-1-(2'-(1H-5-tetrazolyl)biphenylyl-4-methyl)-2-oxo-3-methylsulfonylaminomethyl-6-butyl-pyridin, reference compound], for which the IC50 turned out to be 4 nM.

In the case of `CCCCc1ccc(CN(C)S(C)(=O)=O)c(=O)n1Cc1ccc(-c2ccccc2-c2nn[nH]n2)cc1` [Iy, 1,2-Dihydro-1-(2'-(1H-5-tetrazolyl)-biphenylyl-4-methyl)-2-oxo-3-N-methyl-N-methylsulfonyl-aminomethyl-6-butyl-pyridin], the IC50 was found to be 1.15 nM.

On to `CCCCc1ccc(CN(C(C)C)S(C)(=O)=O)c(=O)n1Cc1ccc(-c2ccccc2-c2nn[nH]n2)cc1` [Iz, 1,2-Dihydro-1-(2'-(1H-5-tetrazolyl)-biphenylyl-4-methyl)-2-oxo-3-N-isopropyl-N-methylsulfonyl-aminomethyl-6-butyl-pyridin], for which the IC50 was determined as 1.9 nM.
